Measurements as given in patent publication US9193819B2, “Polymers, substrates, methods for making such, and devices comprising the same” (Avertica, Inc., priority 2013, dated 2015).
Structures can show the parent of a compound that is named as a salt.

System: mushroom tyrosinase (polyphenol oxidase) Sigma T3824
Experiment: Testing of polymer production in enzymatic tyrosinase (polyphenol oxidase) reaction
Type: biochemical
Parameters: key: +++: Reacted within about 1 hour; ++: reacted within about 3 hours; +: reacted within about 24 hours; +/−: inconclusive results; −: no reaction
Procedure: All reactions were carried out in approximately 50 mM potassium phosphate buffer, pH 6.5 with approximately 5 mM substrate and mushroom tyrosinase (polyphenol oxidase) Sigma T3824 in an amount of 100 to 10,000 units. Reaction volumes varied from 200 μl to 2 ml. In cases where substrates were not completely solubilized, then a saturated solution was used as the limit of solubility. In some cases, a solution of DMSO was used to increase solubility of the substrates. […] The reactions were observed over a 24 hour period for the production of polymers, and the presence and color of polymer and solution was recorded.
The production of polymers in each reaction was visible as a precipitate in the well of a 96 well plate or in the reaction mixture on a glass slide.

[1] = as E1, substrate (or a marked component) dissolved in 20% DMSO
[2] = approx. 50 mM potassium phosphate buffer pH 6.5, approx. 5 mM substrate, 100 to 10,000 units enzyme, observed over 24 hours

Oc1ccc(-c2cc(-c3ccc(O)cc3)cc(-c3ccc(O)cc3)c2)cc1 [1,3,5 Tris(4hydroxyphenyl)benzene]
Result (polymer production in tyrosinase reaction) [1]: + (reacted within about 24 hours)

Oc1ccc2c(c1)[nH]c1ccccc12 [2 Hydroxy carbazole]
Result (polymer production in tyrosinase reaction) [1]: −

Oc1ccc2cc(O)ccc2c1 [2,6 dihydroxnaphthalene]
Result (polymer production in tyrosinase reaction) [2]: + (reacted within about 24 hours)

Oc1ccc2[nH]ccc2c1 [5-hydroxyindole]
Result (polymer production in tyrosinase reaction) [2]: +++ (Reacted within about 1 hour)

Oc1ccc2cc[nH]c2c1 [6 Hydroxyindole]
Result (polymer production in tyrosinase reaction) [2]: ++ (reacted within about 3 hours)

Cl.NCCc1ccccc1 [Beta phenylethylamine HCL]
Result (polymer production in tyrosinase reaction) [2]: +/−

CC1=NCCc2c1[nH]c1cc(O)ccc21 [Harmalol HCl dehydrate]
Result (polymer production in tyrosinase reaction) [1]: −

c1ccc2[nH]ccc2c1 [Indole]
Result (polymer production in tyrosinase reaction) [2]: −

CN[C@@H](Cc1ccc(O)cc1)C(=O)O [N-methyl tyrosine]
Result (polymer production in tyrosinase reaction) [2]: ++ (reacted within about 3 hours)

Cl.NCCc1ccc(O)cc1 [Tyramine HCl]
Result (polymer production in tyrosinase reaction) [2]: +++ (Reacted within about 1 hour)

NCCc1ccc(O)cc1 [Tyramine]
Result (polymer production in tyrosinase reaction) [2]: +++ (Reacted within about 1 hour)

N[C@@H](Cc1ccc(O)cc1)C(=O)O [Tyrosine]
Result (polymer production in tyrosinase reaction) [2]: ++ (reacted within about 3 hours)
